According to US10472315B2, “Inhibitors of methionine aminopeptidases and methods of treating disorders” (THE JOHNS HOPKINS UNIVERSITY, priority 2009, dated 2019):

Tested on: M. tuberculosis CDC1551 wild-type, control and MtMetAP1a/MtMetAP1c knock-in strains
Type: cell-based

`O=C1C(Cl)=C(Cl)C(=O)c2ccccc21` [Compound 4, 2,3-dichloro-1,4-naphthoquinone] was tested, and the “growth of MtMetAP1a and MtMetAP1c knock-in strains” value was “gained resistance” and the “growth of wild-type and control M. tuberculosis strains” value was “inhibited”.
